Two compounds from publication PMC11359702, “Synthesis and Biochemical Evaluation of Ethanoanthracenes and Related Compounds: Antiproliferative and Pro-Apoptotic Effects in Chronic Lymphocytic Leukemia (CLL)” (Pharmaceuticals, 2024) can be followed below.

Structures are written as SMILES. Several values for one entry are separate records, joined by “and”; a condition that tells them apart may be missing. Identical values can stand only once. Like-named read-outs stand apart in the source and are kept apart here.

Series [1] has as its system leukemia cell panel. As to the kind of experiment: NCI-60 five-dose assay, leukemia cell panel mean. It counts as cell-based, human. To be noted: mean across the six leukemia cell lines.
Series [2] concerns K-562. As to the kind of experiment: NCI-60 five-dose assay. In kind it is cell-based, human. To be noted: K-562.
In series [3] the test system is HL-60(TB). As to the kind of experiment: NCI-60 five-dose assay. In kind it is cell-based, human. The following applies: HL-60(TB).
Series [4] can be described thus: HPLC stability study in phosphate buffers. In kind it is physicochemical. In short, it runs like this: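 Compound stock (5 mg in 10 mL 80:20 acetonitrile–water) added to phosphate buffers at pH 4, 7.4 and 9 and held at 37 °C. Sampled over 24 h (0 min to 24 h) and analysed by C18 HPLC with UV detection at 254 nm; single experiments.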
Series [5] concerns SR. As to the kind of experiment: NCI-60 five-dose assay. It counts as cell-based, human.
Series [6] has as its system PGA-1 cells. As to the kind of experiment: alamarBlue cell viability assay. The following applies: for IC50: read-out: PGA-1 IC50. (In general: Alamar Blue is a resazurin reagent that responds to reducing activity.)
Series [7] has as its system NCI 60 cancer cell line panel. As to the kind of experiment: NCI-60 five-dose assay, full-panel means. In kind it is cell-based. The method, then:
(§1) A number of our most promising compounds identified through preliminary cell viability testing (23c, 23d, 23f, 23h, 23l, 23m, 23n, 23o, 24f, 24l, 25n and 26n) were selected for NCI drug screening in the 60-cell-line panel. The panel includes nine subcategories based on cancer tissue types, which include leukemia, ovarian, central nervous system, breast, lung, prostate, skin, renal and colon cancer. The compounds were initially assessed in a one-dose assay at a fixed treatment concentration of 10 µM. The compounds selected for further investigation were progressed to a five-dose assay across the concentration ranges of 0.01, 0.1, 1, 10 and 100 µM [72]. The endpoints assessed in the screening protocol were GI50, TGI and LC50 [72].

For series [8], the system named is CCRF-CEM. As to the kind of experiment: NCI-60 five-dose assay. In kind it is cell-based, human.
Series [9] relates to HG-3 cells. As to the kind of experiment: alamarBlue cell viability assay. The following applies: for IC50: read-out: HG-3 IC50.
Series [10] concerns MOLT-4. As to the kind of experiment: NCI-60 five-dose assay. In kind it is cell-based, human. The following applies: MOLT-4.
Series [11] relates to RPMI-8226. As to the kind of experiment: NCI-60 five-dose assay. The following applies: RPMI-8226. In kind it is cell-based, human.
Series [12] relates to HG-3 cells. To be noted: 10 µM.
For series [13], the system named is melanoma cell lines. As to the kind of experiment: NCI-60 five-dose assay, melanoma cell lines. It counts as cell-based, human. To be noted: range over melanoma cell lines. As for the experimental part:
as §1

The test system of series [14] is HG-3 and PGA-1 cell lines. As to the kind of experiment: alamarBlue cell viability assay, mean of both CLL cell lines. The following applies: mean of HG-3 and PGA-1. It counts as cell-based, human.
The subject of series [15] is HG-3 cells. As to the kind of experiment: Annexin V/PI apoptosis assay (FACS). In kind it is cell-based, human. The method, then: (§2) The pro-apoptotic effects of selected nitrovinylethanoanthracene compounds 20a and 20f and anthracene chalcones 23a and 25n in HG-3 cells and PGA-1 cells was then investigated using FITC (fluorescein isothiocyanate), Annexin V/PI (propidium iodide) and FACS (fluorescence-activated cell sorting) analysis to characterize the mode of cellular death induced. Apoptosis was assessed as % total apoptosis (total of early (Q3) and late (Q2) apoptosis).
(§3) CLL cells PGA-1 and HG-3 (1 × 10^6 cells/mL) were treated at 37 °C with either the vehicle (1% (v/v) DMSO) or the ethanoanthracene compounds 20a, 20f, 23a and 25n (10 µM, 5 µM and 1 µM) for 48 h, following the protocol previously described. The cells were then harvested via centrifugation at 400× g in a temperature-controlled Sorvall centrifuge. The cells were rinsed with Ca^2+ Annexin-V-binding buffer (0.1 M HEPES, pH 7.4; 0.14 M NaCl; 25 mM CaCl2, 0.5 mL). The samples were resuspended in FITC Annexin V (diluted 1:33 in Ca^2+ Annexin V-binding buffer, 50 µL) and incubated for 10 min (on ice and protected from light). The samples were washed with Annexin-V-binding buffer and resuspended in a PI solution (0.5 µg/mL, 500 µL) and analyzed within 1 h using a BD Accuri C6 flow cytometer counting 10,000 cells using the FlowJo software Version 10 (FlowJo LLC, Ashland, OR, USA).

For series [16], the system named is PGA-1 cells. As to the kind of experiment: Annexin V/PI apoptosis assay (FACS). It counts as cell-based, human. The method, then: as §2, §3
For series [17], the system named is HG-3 cells. As to the kind of experiment: LDH cytotoxicity assay (CytoTox 96). It counts as cell-based. To be noted: 24 h. The text has this:
(§4) The lactate dehydrogenase (LDH) assay is used to assess the membrane integrity of cells as a function of the cytoplasmic LDH released. The loss of cell membrane integrity (due to cytotoxic insult) is detectable through LDH release into the cell growth medium. The assay is initiated via the reduction in cellular co-factor NAD^+ to NADH catalyzed via the LDH enzyme. Newly formed NADH catalyzes the acidic reduction in iodonitrotetrazolium chloride (INT) to the highly colored formazan (red) (mediated via the diaphorase enzyme). […] At the 10-µM treatment concentration, mild to moderate cytotoxicity (19–47%) was observed. […] Cytotoxicity remained low to mild at 1 µM (4–18%) with 23a displaying the lowest LDH release (4%).
(§5) Following the treatment of the HG-3 and PGA-1 cells at 10 µM for 24 hr, the amount of LDH released was determined using an LDH assay kit from Promega (G1780). Cell lysis solution = 100% cell lysis and LDH release). Data are presented as % cell death at a concentration of 10 µM. Cells were treated with ethanoanthracene compounds 20a, 20f, 23a and 25n (1 µM and 10 µM) for 24 h. Values are shown as the mean of three independent experiments.
(§6) The cytotoxicity of the selected compounds 20a, 20f, 23a and 25n was determined using the CytoTox 96 non-radioactive cytotoxicity assay (Promega Corporation; 2800 Woods Hollow Road, Madison, WI, USA). CLL cells HG-3 and PGA-1 were incubated for 24 h and then treated with the selected compounds 20a, 20f, 23a and 25n at 10-µM and 1-µM concentrations, following the protocol outlined above in the cell viability assay. After 24 h, the lysis solution (10×) (20 µL) was added, and the cells were incubated for a further 1 h to ensure complete cell death. Supernatant (50 µL) was removed from each well and transferred to a clean 96-well plate. “Substrate mix” (50 µL) was added, and the plate was stored in the dark at 20 °C for 30 min. “Stop solution” (50 µL) was added to each well, and the absorbance at 490 nm was recorded using a Dynatech MR5000 plate reader; the % cell death was determined relative to the control cell lysis solution.

The subject of series [18] is PGA-1 cells. As to the kind of experiment: LDH cytotoxicity assay (CytoTox 96). The following applies: PGA-1, 10 µM, 24 h. It counts as cell-based.
Excerpt: as §4, §5, §6

The GI50 is the concentration at which growth is held to half of that of the control. A word on the IC50: it is the concentration that gives 50% inhibition. By CC50 is commonly meant the concentration that lowers cell viability or growth by half. The low end stands for greater toxicity to the cells, the high end for lower toxicity to the cells. Broadly, the cell viability is the share of living cells, or the viability signal relative to a control. High values mean less harm to the cells, low ones more harm to the cells. With `O=C(/C=C/C12c3ccccc3C(c3ccccc31)C1C(=O)NC(=O)C12)c1ccccn1` (centres unmarked) [Compound 23n], the 50% growth inhibitory concentration (GI50) in [1] was found to be 1320 nM; in series [2] it was 1370 nM; in series [3], 1020 nM; in series [5], 780 nM; in series [7] (mean over NCI 60 cell line panel, read-out: Mean GI50 (MID GI50, full-panel mean-graph mid-point)), 1660 nM; in [8], 1440 nM. Besides, the GI50 was 2110 nM in [10], 1220 nM in [11] and 1120 to 2140 nM in series [13]. Besides, the “Half-life pH 4” value in series [4] (pH 4 buffer, 37 °C) was 19 h. Besides, the “% remaining 24 h pH 4” value in series [4] (pH 4 buffer, 37 °C, 24 h, HPLC) was 39% and 38.86%. Moreover, the “Half-life pH 7.4” value in series [4] (pH 7.4 buffer, 37 °C) is above 24 h. The “% remaining 24 h pH 7.4” value in [4] (pH 7.4 buffer, 37 °C, 24 h, HPLC) was 70% and 70.29%. Also, the “decrease in compound concentration over 24 h” value in [4] (pH 9.0) is listed as 11%. For the same compound, the “Half-life pH 9” value in [4] (pH 9 buffer, 37 °C) is on record as above 24 h. Besides, the “% remaining 24 h pH 9” value in series [4] (pH 9 buffer, 37 °C, 24 h, HPLC) was 89% and 88.59%. Further, the IC50 in series [6] (PGA-1, 24 h) worked out at 1480 nM; in series [9] (HG-3, 24 h), 2390 nM; in series [14], 1940 nM. Moreover, the 50% cytotoxic concentration (CC50) in [7] worked out at 14800 nM. Further, the “Mean TGI (MID TGI, total growth inhibition)” value in [7] (mean over NCI 60 cell line panel) came to 4570 nM. In series [12], this compound registered a cell viability of 2%.
Broadly, the viability is the share of living cells, or the viability signal relative to a control. Take `O=C1C2C3c4ccccc4C(C=C[N+](=O)[O-])(c4ccccc43)C2C(=O)N1CCCCCCN1C(=O)C2C3c4ccccc4C(C=C[N+](=O)[O-])(c4ccccc43)C2C1=O` (centres unmarked) [Compound 20f]: the IC50 amounted to 350 nM in series [6] (Homo sapiens, 24 h) and 170 nM in [9] (Homo sapiens, HG-3, 24 h). Further, the viability at 10 µM in [6] (Homo sapiens, 24 h, read-out: cell viability) was 17%; in series [9] (Homo sapiens, HG-3, 24 h, read-out: cell viability), 14 to 43%. Besides, the “potency relative to fludarabine control” value in series [6] (PGA-1, IC50 ratio) is recorded as 91 fold; in series [9] (HG-3, IC50 ratio), 165 fold. In addition, the “total apoptosis (early Q3 + late Q2)” value in [15] (HG-3, 1 µM) was 82%; in [15] (HG-3, 10 µM), 82–95% and 82%; in series [16] (PGA-1, 1 µM) it was 76%; in [16] (PGA-1, 10 µM), 87–97% and 88%. Further, the “LDH release (cytotoxicity, % cell death)” value in series [17] (HG-3, 1 µM) was 12%; in series [17] (HG-3, 10 µM, lysis solution = 100%), 19%; in [18], 19%.
